# Source: PubChem BioAssay (NCI)
#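 Assay format: 96-well plates, 48-hour exposure. Abbreviation: GI50, concentration required for 50% inhibition of growth. The concentration for full growth arrest is given as TGI.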
# Legend:
# Experiment in all cases: growth of human tumour cells (NCI), 48 h
# [1] = system: COLO 205 colon
# [2] = system: UO-31 renal
# [3] = system: SN12C renal
# [4] = system: BT-549 breast
# [5] = system: SR leukemia
# [6] = system: HCC-2998 colon
# [7] = system: NCI-H522 lung
# [8] = system: MCF7 breast
# [9] = system: SK-OV-3 ovarian
# [10] = system: RXF 393 renal
# [11] = system: NCI-H460 lung
# [12] = system: SK-MEL-28 melanoma
# [13] = system: IGROV1 ovarian
# [14] = system: A498 renal
# [15] = system: UACC-62 melanoma
# [16] = system: OVCAR-3 ovarian
# [17] = system: SF-268 CNS
# [18] = system: HOP-62 NSCLC
# [19] = system: OVCAR-8 ovarian
# [20] = system: HS 578T breast
# [21] = system: OVCAR-5 ovarian
# [22] = system: MOLT-4 leukemia
# [23] = system: MDA-MB-435
# [24] = system: RPMI-8226 leukemia
# [25] = system: CCRF-CEM leukemia
# [26] = system: A549 NSCLC
# [27] = system: SF-295 CNS
# [28] = system: LOX IMVI melanoma
# [29] = system: T-47D breast
# [30] = system: ACHN renal
# [31] = system: HOP-92 NSCLC
# [32] = system: SK-MEL-2 melanoma
# [33] = system: HCT-15 colon
# [34] = system: CAKI-1 renal
# [35] = system: K-562 leukemia
# [36] = system: UACC-257 melanoma
# [37] = system: EKVX NSCLC
# [38] = system: SK-MEL-5 melanoma
# [39] = system: HL-60(TB) leukemia
# [40] = system: 786-0 renal
# [41] = system: SF-539 CNS
# [42] = system: SW-620 colon
# [43] = system: KM12 colon
# [44] = system: DU-145 prostate
# [45] = system: TK-10 renal
# [46] = system: MDA-MB-231 breast
# [47] = system: PC-3 prostate
# [48] = system: NCI-H23 lung
# [49] = system: U251 CNS
# [50] = system: SNB-19 CNS
# [51] = system: M14 melanoma
# [52] = system: HCT-116 colon
# [53] = system: NCI/ADR-RES ovarian
# [54] = system: OVCAR-4 ovarian
# [55] = system: NCI-H226 lung
# [56] = system: HT29 colon
# [57] = system: MALME-3M melanoma
structure (smiles),measurement,setting,value
CC(=O)Nc1ccc(-c2csc(Nc3cccc(-c4csc(-c5ccccc5)n4)c3)n2)cc1,GI50,[1],24.2 µM
same,TGI,[1],> 50 µM
same,GI50,[2],16.7 µM
same,TGI,[2],> 50 µM
same,GI50,[3],8.2 µM
same,TGI,[3],27.6 µM
same,GI50,[4],22.5 µM
same,TGI,[4],> 50 µM
same,GI50,[5],27.3 µM
same,TGI,[5],> 50 µM
same,GI50,[6],12.5 µM
same,TGI,[6],> 50 µM
same,GI50,[7],24.2 µM
same,TGI,[7],> 50 µM
same,GI50,[8],20 µM
same,TGI,[8],> 50 µM
same,GI50,[9],> 50 µM
same,TGI,[9],> 50 µM
same,GI50,[10],13.7 µM
same,TGI,[10],39.6 µM
same,GI50,[11],18.8 µM
same,TGI,[11],> 50 µM
same,GI50,[12],6.75 µM
same,TGI,[12],36.4 µM
same,GI50,[13],21.5 µM
same,TGI,[13],> 50 µM
same,GI50,[14],46 µM
same,TGI,[14],> 50 µM
same,GI50,[15],4.7 µM
same,TGI,[15],14.9 µM
same,GI50,[16],20.4 µM
same,TGI,[16],> 50 µM
same,GI50,[17],20 µM
same,TGI,[17],> 50 µM
same,GI50,[18],> 50 µM
same,TGI,[18],> 50 µM
same,GI50,[19],15.6 µM
same,TGI,[19],> 50 µM
same,GI50,[20],37.2 µM
same,TGI,[20],> 50 µM
same,GI50,[21],> 50 µM
same,TGI,[21],> 50 µM
same,GI50,[22],> 50 µM
same,TGI,[22],> 50 µM
same,GI50,[23],15.2 µM
same,TGI,[23],> 50 µM
same,GI50,[24],19.4 µM
same,TGI,[24],> 50 µM
same,GI50,[25],> 50 µM
same,TGI,[25],> 50 µM
same,GI50,[26],15.3 µM
same,TGI,[26],> 50 µM
same,GI50,[27],14.7 µM
same,TGI,[27],> 50 µM
same,GI50,[28],7.71 µM
same,TGI,[28],18.1 µM
same,GI50,[29],43.4 µM
same,TGI,[29],> 50 µM
same,GI50,[30],8.3 µM
same,TGI,[30],27.5 µM
same,GI50,[31],42.9 µM
same,TGI,[31],> 50 µM
same,GI50,[32],16.4 µM
same,TGI,[32],> 50 µM
same,GI50,[33],10.3 µM
same,TGI,[33],> 50 µM
same,GI50,[34],17.5 µM
same,TGI,[34],> 50 µM
same,GI50,[35],12.6 µM
same,TGI,[35],48.5 µM
same,GI50,[36],19 µM
same,TGI,[36],> 50 µM
same,GI50,[37],20.2 µM
same,TGI,[37],> 50 µM
same,GI50,[38],18.7 µM
same,TGI,[38],> 50 µM
same,GI50,[39],29.7 µM
same,TGI,[39],> 50 µM
same,GI50,[40],21 µM
same,TGI,[40],> 50 µM
same,GI50,[41],23.3 µM
same,TGI,[41],> 50 µM
same,GI50,[42],> 50 µM
same,TGI,[42],> 50 µM
same,GI50,[43],24 µM
same,TGI,[43],> 50 µM
same,GI50,[44],22.2 µM
same,TGI,[44],> 50 µM
same,GI50,[45],19.7 µM
same,TGI,[45],> 50 µM
same,GI50,[46],13.5 µM
same,TGI,[46],37.9 µM
same,GI50,[47],14.7 µM
same,TGI,[47],> 50 µM
same,GI50,[48],16.5 µM
same,TGI,[48],> 50 µM
same,GI50,[49],10.4 µM
same,TGI,[49],> 50 µM
same,GI50,[50],49.7 µM
same,TGI,[50],> 50 µM
same,GI50,[51],20.5 µM
same,TGI,[51],> 50 µM
same,GI50,[52],18.4 µM
same,TGI,[52],> 50 µM
same,GI50,[53],17.5 µM
same,TGI,[53],> 50 µM
COc1cc(O)cc(O)c1C(=O)CC(Cl)(Cl)Cl,TGI,[1],> 100 µM
same,TGI,[2],> 100 µM
same,TGI,[3],> 100 µM
same,TGI,[4],> 100 µM
same,TGI,[5],> 100 µM
same,TGI,[6],> 100 µM
same,TGI,[7],> 100 µM
same,TGI,[8],> 100 µM
same,TGI,[9],> 100 µM
same,TGI,[10],> 100 µM
same,TGI,[11],> 100 µM
same,TGI,[12],> 100 µM
same,TGI,[13],> 100 µM
same,TGI,[14],> 100 µM
same,TGI,[15],> 100 µM
same,TGI,[16],> 100 µM
same,TGI,[17],> 100 µM
same,TGI,[18],> 100 µM
same,TGI,[54],> 100 µM
same,TGI,[19],> 100 µM
same,TGI,[20],> 100 µM
same,TGI,[21],> 100 µM
same,TGI,[22],> 100 µM
same,TGI,[23],> 100 µM
same,TGI,[24],> 100 µM
same,TGI,[25],> 100 µM
same,TGI,[55],> 100 µM
same,TGI,[26],> 100 µM
same,TGI,[27],> 100 µM
same,TGI,[28],> 100 µM
same,TGI,[29],> 100 µM
same,TGI,[30],> 100 µM
same,TGI,[31],> 100 µM
same,TGI,[33],> 100 µM
same,TGI,[56],> 100 µM
same,TGI,[34],> 100 µM
same,TGI,[35],> 100 µM
same,TGI,[36],> 100 µM
same,TGI,[37],> 100 µM
same,TGI,[38],> 100 µM
same,TGI,[39],> 100 µM
same,TGI,[40],> 100 µM
same,TGI,[41],> 100 µM
same,TGI,[42],> 100 µM
same,TGI,[43],> 100 µM
same,TGI,[44],> 100 µM
same,TGI,[45],> 100 µM
same,TGI,[46],> 100 µM
same,TGI,[57],> 100 µM
same,TGI,[47],> 100 µM
same,TGI,[48],> 100 µM
same,TGI,[49],> 100 µM
same,TGI,[50],> 100 µM
same,TGI,[51],> 100 µM
same,TGI,[52],> 100 µM
same,TGI,[53],> 100 µM
